Measured values reported in patent US9393271B2, “GHRH agonists for islet cell transplantation and function and the treatment of diabetes” (UNIVERSITY OF MIAMI, priority 2012, dated 2016).
Non-standard residues stand in square brackets, D forms with d. Residues, ends and D or L forms follow the SMILES beside them. ξ: configuration not given here. *: point of attachment. Phe(F5) = N[C@@H](Cc1c(F)c(F)c(F)c(F)c1F)C(=O)O; Desaminotyrosyl = O=C(CCc1ccc(O)cc1)*; NMeY = CN[C@@H](Cc1ccc(O)cc1)C(=O)O; Nle = CCCC[C@H](N)C(=O)O; Orn = NCCC[C@H](N)C(=O)O; Abu = CC[C@H](N)C(=O)O; GABA = NCCCC(=O)O; ξA = CC(N)C(=O)O

Target: T1, GHRH receptor (human pituitary membrane homogenates) (Homo sapiens, UniProt Q02643)
T1 sequence (Q02643 23-423): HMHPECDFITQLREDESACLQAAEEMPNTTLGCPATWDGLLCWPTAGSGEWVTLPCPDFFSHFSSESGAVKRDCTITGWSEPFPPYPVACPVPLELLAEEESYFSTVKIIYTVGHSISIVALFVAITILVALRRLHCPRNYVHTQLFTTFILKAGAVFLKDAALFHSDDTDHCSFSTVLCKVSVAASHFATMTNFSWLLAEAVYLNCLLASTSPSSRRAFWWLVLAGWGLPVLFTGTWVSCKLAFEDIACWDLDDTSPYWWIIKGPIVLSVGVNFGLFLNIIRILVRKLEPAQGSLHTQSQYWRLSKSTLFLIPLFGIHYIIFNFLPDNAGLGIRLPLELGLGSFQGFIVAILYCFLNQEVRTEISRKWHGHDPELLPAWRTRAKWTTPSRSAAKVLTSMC
Assay: GHRH receptor binding, ligand competition with 125I-labeled JV-1-42 (Table 7)
Parameters: Normal human pituitaries were purchased from the National Hormone and Peptide Program; tissue National Hormone and Peptide Program (A. F. Parlow, Harbor-UCLA Medical Center, Torrance, Calif.); host or cells: normal human pituitary, membrane fraction / homogenate
Conditions: JI-38 = 1

Row | SMILES | Relative affinitiy (Binding potency) vs JI-38
1 | CCCC[C@H](NC(=O)[C@@H](NC(=O)[C@H](CC(=O)O)NC(=O)[C@H](CCC(N)=O)NC(=O)[C@H](CC(C)C)NC(=O)[C@H](CC(C)C)NC(=O)[C@H](CCCN)NC(=O)[C@H](CCCNC(=N)N)NC(=O)[C@H](C)NC(=O)[C@H](CO)NC(=O)[C@H](CC(C)C)NC(=O)[C@H](CCC(N)=O)NC(=O)[C@H](CC)NC(=O)[C@H](CC(C)C)NC(=O)[C@@H](NC(=O)[C@H](CCCN)NC(=O)[C@H](CCCNC(=N)N)NC(=O)[C@H](Cc1ccc(O)cc1)NC(=O)[C@H](CO)NC(=O)[C@H](CCC(N)=O)NC(=O)[C@@H](NC(=O)[C@H](Cc1ccccc1)NC(=O)[C@@H](NC(=O)[C@H](C)NC(=O)[C@H](CC(=O)O)NC(=O)[C@H](C)NC(=O)[C@H](Cc1ccc(O)cc1)NC)[C@@H](C)CC)[C@@H](C)O)C(C)C)[C@@H](C)CC)C(=O)N[C@@H](CO)C(=O)N[C@@H](CCCNC(=N)N)C(=O)NC [Peptide P-27405, [N—Me-Tyr^1, Gln^8, Orn^12, Abu^15, Orn^21, Nle^27]hGHRH(1-29)NH—CH3] (H-[NMeY]ADAIFTQSYR[Orn]VL[Abu]QLSAR[Orn]LLQDI[Nle]SR-NHMe) | 4.03
2 | CCCC[C@H](NC(=O)[C@@H](NC(=O)[C@H](CC(=O)O)NC(=O)[C@H](CCC(N)=O)NC(=O)[C@H](CC(C)C)NC(=O)[C@H](CC(C)C)NC(=O)[C@H](CCCN)NC(=O)[C@H](CCCNC(=N)N)NC(=O)[C@H](C)NC(=O)[C@H](CO)NC(=O)[C@H](CC(C)C)NC(=O)[C@H](CCC(N)=O)NC(=O)[C@H](CC)NC(=O)[C@H](CC(C)C)NC(=O)[C@@H](NC(=O)[C@H](CCCN)NC(=O)[C@H](CCCNC(=N)N)NC(=O)[C@H](Cc1ccc(O)cc1)NC(=O)[C@H](CO)NC(=O)[C@H](CCC(N)=O)NC(=O)[C@@H](NC(=O)[C@H](Cc1ccccc1)NC(=O)[C@@H](NC(=O)[C@H](C)NC(=O)[C@H](CC(=O)O)NC(=O)[C@H](C)NC(=O)[C@H](Cc1ccc(O)cc1)NC)[C@@H](C)CC)[C@@H](C)O)C(C)C)[C@@H](C)CC)C(=O)N[C@@H](CC(=O)O)C(=O)N[C@@H](CCCNC(=N)N)C(=O)NC [Peptide P-27406, [N—Me-Tyr^1, Gln^8, Orn^12, Abu^15, Orn^21, Nle^27, Asp^28]hGHRH(1-29)NH—CH3] (H-[NMeY]ADAIFTQSYR[Orn]VL[Abu]QLSAR[Orn]LLQDI[Nle]DR-NHMe) | 14.5
3 | CCCC[C@H](NC(=O)[C@@H](NC(=O)[C@H](CC(=O)O)NC(=O)[C@H](CCC(N)=O)NC(=O)[C@H](CC(C)C)NC(=O)[C@H](CC(C)C)NC(=O)[C@H](CCCN)NC(=O)[C@H](CCCNC(=N)N)NC(=O)[C@H](C)NC(=O)[C@H](CO)NC(=O)[C@H](CC(C)C)NC(=O)[C@H](CCC(N)=O)NC(=O)[C@H](CC)NC(=O)[C@H](CC(C)C)NC(=O)[C@@H](NC(=O)[C@H](CCCN)NC(=O)[C@H](CCCNC(=N)N)NC(=O)[C@H](Cc1ccc(O)cc1)NC(=O)[C@H](CO)NC(=O)[C@H](CCC(N)=O)NC(=O)[C@@H](NC(=O)[C@H](Cc1ccccc1)NC(=O)[C@@H](NC(=O)[C@H](C)NC(=O)[C@H](CC(=O)O)NC(=O)[C@H](C)NC(=O)CCc1ccc(O)cc1)[C@@H](C)CC)[C@@H](C)O)C(C)C)[C@@H](C)CC)C(=O)N[C@@H](CC(=O)O)C(=O)N[C@@H](CCCNC(=N)N)C(=O)NC [Peptide P-27407, [Dat^1, Gln^8, Orn^12, Abu^15, Orn^21, Nle^27, Asp^28]hGHRH(1-29)NH—CH3] (Desaminotyrosyl-ADAIFTQSYR[Orn]VL[Abu]QLSAR[Orn]LLQDI[Nle]DR-NHMe) | 1.45
4 | CCCC[C@H](NC(=O)[C@@H](NC(=O)[C@H](CC(=O)O)NC(=O)[C@H](CCC(N)=O)NC(=O)[C@H](CC(C)C)NC(=O)[C@H](CC(C)C)NC(=O)[C@H](CCCN)NC(=O)[C@H](CCCNC(=N)N)NC(=O)[C@H](C)NC(=O)[C@H](CO)NC(=O)[C@H](CC(C)C)NC(=O)[C@H](CCC(N)=O)NC(=O)[C@H](CC)NC(=O)[C@H](CC(C)C)NC(=O)[C@@H](NC(=O)[C@H](CCCN)NC(=O)[C@H](CCCNC(=N)N)NC(=O)[C@H](Cc1ccc(O)cc1)NC(=O)[C@H](CO)NC(=O)[C@H](CCC(N)=O)NC(=O)[C@@H](NC(=O)[C@H](Cc1ccccc1)NC(=O)[C@@H](NC(=O)[C@H](C)NC(=O)[C@H](CC(=O)O)NC(=O)[C@@H](C)NC(=O)CCc1ccc(O)cc1)[C@@H](C)CC)[C@@H](C)O)C(C)C)[C@@H](C)CC)C(=O)N[C@@H](CC(=O)O)C(=O)N[C@@H](CCCNC(=N)N)C(=O)NC [Peptide P-27408, [Dat^1, D-Ala^2, Gln^8, Orn^12, Abu^15, Orn^21, Nle^27, Asp^28]hGHRH(1-30)NH—CH3] (Desaminotyrosyl-[dA]DAIFTQSYR[Orn]VL[Abu]QLSAR[Orn]LLQDI[Nle]DR-NHMe) | 7.91
5 | CCCC[C@H](NC(=O)[C@@H](NC(=O)[C@H](CC(=O)O)NC(=O)[C@H](CCC(N)=O)NC(=O)[C@H](CC(C)C)NC(=O)[C@H](CC(C)C)NC(=O)[C@H](CCCN)NC(=O)[C@H](CCCNC(=N)N)NC(=O)[C@H](C)NC(=O)[C@H](CO)NC(=O)[C@H](CC(C)C)NC(=O)[C@H](CCC(N)=O)NC(=O)[C@H](CC)NC(=O)[C@H](CC(C)C)NC(=O)[C@@H](NC(=O)[C@H](CCCN)NC(=O)[C@H](CCCNC(=N)N)NC(=O)[C@H](Cc1ccc(O)cc1)NC(=O)[C@H](CO)NC(=O)[C@@H](NC(=O)[C@@H](NC(=O)[C@H](Cc1ccccc1)NC(=O)[C@@H](NC(=O)[C@H](C)NC(=O)[C@H](CC(=O)O)NC(=O)[C@@H](C)NC(=O)[C@H](Cc1ccc(O)cc1)NC)[C@@H](C)CC)[C@@H](C)O)[C@@H](C)O)C(C)C)[C@@H](C)CC)C(=O)N[C@@H](CC(=O)O)C(=O)N[C@@H](CCCNC(=N)N)C(=O)NC [Peptide P-27410, [N—Me-Tyr^1, D-Ala^2, Thr^8, Orn^12, Abu^15, Orn^21, Nle^27, Asp^28]hGHRH(1-29)NH—CH3] (H-[NMeY][dA]DAIFTTSYR[Orn]VL[Abu]QLSAR[Orn]LLQDI[Nle]DR-NHMe) | 5.24
6 | CCCC[C@H](NC(=O)[C@@H](NC(=O)[C@H](CC(=O)O)NC(=O)[C@H](CCC(N)=O)NC(=O)[C@H](CC(C)C)NC(=O)[C@H](CC(C)C)NC(=O)[C@H](CCCN)NC(=O)[C@H](Cc1c[nH]cn1)NC(=O)[C@H](C)NC(=O)[C@H](CO)NC(=O)[C@H](CC(C)C)NC(=O)[C@H](CCC(N)=O)NC(=O)[C@H](CC)NC(=O)[C@H](CC(C)C)NC(=O)[C@@H](NC(=O)[C@H](CCCN)NC(=O)[C@H](Cc1c[nH]cn1)NC(=O)[C@H](Cc1ccc(O)cc1)NC(=O)[C@H](CO)NC(=O)[C@H](CCC(N)=O)NC(=O)[C@@H](NC(=O)[C@H](Cc1ccccc1)NC(=O)[C@@H](NC(=O)[C@H](C)NC(=O)[C@H](CC(=O)O)NC(=O)C(C)NC(=O)CCc1ccc(O)cc1)[C@@H](C)CC)[C@@H](C)O)C(C)C)[C@@H](C)CC)C(=O)N[C@@H](CC(=O)O)C(=O)N[C@@H](CCCNC(=N)N)C(=O)NC (some centres unmarked) [Peptide P-27413, [Dat^1, Gln^8, His^11, Orn^12, Abu^15, His^20, Orn^21, Nle^27, Asp^28]hGHRH(1-29)NH—CH3] (Desaminotyrosyl-[ξA]DAIFTQSYH[Orn]VL[Abu]QLSAH[Orn]LLQDI[Nle]DR-NHMe) | 1.78
7 | CCCC[C@H](NC(=O)[C@@H](NC(=O)[C@H](CC(=O)O)NC(=O)[C@H](CCC(N)=O)NC(=O)[C@H](CC(C)C)NC(=O)[C@H](CC(C)C)NC(=O)[C@H](CCCN)NC(=O)[C@H](CCCNC(=N)N)NC(=O)[C@H](C)NC(=O)[C@H](CO)NC(=O)[C@H](CC(C)C)NC(=O)[C@H](CCC(N)=O)NC(=O)[C@H](CC)NC(=O)[C@H](CC(C)C)NC(=O)[C@@H](NC(=O)[C@H](CCCN)NC(=O)[C@H](CCCNC(=N)N)NC(=O)[C@H](Cc1ccc(O)cc1)NC(=O)[C@H](CO)NC(=O)[C@H](CC(N)=O)NC(=O)[C@@H](NC(=O)[C@H](Cc1c(F)c(F)c(F)c(F)c1F)NC(=O)[C@@H](NC(=O)[C@H](C)NC(=O)[C@H](CC(=O)O)NC(=O)[C@@H](C)NC(=O)[C@H](Cc1ccc(O)cc1)NC)[C@@H](C)CC)[C@@H](C)O)C(C)C)[C@@H](C)CC)C(=O)N[C@@H](CO)C(=O)N[C@@H](CCCNC(=N)N)C(=O)NCCCC(=O)NC [Peptide P-27414, [N—Me-Tyr^1, D-Ala^2, Fpa5^6, Orn^12, Abu^15, Orn^21, Nle^27, Gab^30]hGHRH(1-30)NH—CH3] (H-[NMeY][dA]DAI[Phe(F5)]TNSYR[Orn]VL[Abu]QLSAR[Orn]LLQDI[Nle]SR[GABA]-NHMe) | 2.79
8 | CCCC[C@H](NC(=O)[C@@H](NC(=O)[C@H](CC(=O)O)NC(=O)[C@H](CCC(N)=O)NC(=O)[C@H](CC(C)C)NC(=O)[C@H](CC(C)C)NC(=O)[C@H](CCCN)NC(=O)[C@H](CCCNC(=N)N)NC(=O)[C@H](C)NC(=O)[C@H](CO)NC(=O)[C@H](CC(C)C)NC(=O)[C@H](CCC(N)=O)NC(=O)[C@H](CC)NC(=O)[C@H](CC(C)C)NC(=O)[C@@H](NC(=O)[C@H](CCCN)NC(=O)[C@H](CCCNC(=N)N)NC(=O)[C@H](Cc1ccc(O)cc1)NC(=O)[C@H](CO)NC(=O)[C@H](CC(N)=O)NC(=O)[C@@H](NC(=O)[C@H](Cc1ccccc1)NC(=O)[C@@H](NC(=O)[C@H](C)NC(=O)[C@H](CC(=O)O)NC(=O)[C@H](C)NC(=O)[C@H](Cc1ccc(O)cc1)NC)[C@@H](C)CC)[C@@H](C)O)C(C)C)[C@@H](C)CC)C(=O)N[C@@H](CO)C(=O)N[C@@H](CCCNC(=N)N)C(=O)NCCCC(=O)NC [Peptide P-27415, [N—Me-Tyr^1, Orn^12, Abu^15, Orn^21, Nle^27, Gab^30]hGHRH(1-30)NH—CH3] (H-[NMeY]ADAIFTNSYR[Orn]VL[Abu]QLSAR[Orn]LLQDI[Nle]SR[GABA]-NHMe) | 1.44
